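Five compound concentrations were applied to cells in 96-well plates for 48 hours; endpoints were derived by simple linear interpolation of the resulting dose-response curve. TGI: total growth inhibition.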
Key:
Assay in all cases: NCI tumour cell line growth inhibition, 48 h
KM20L2 colon = tested on: KM20L2 colon
LXFL 529 NSCLC = tested on: LXFL 529 NSCLC
M19-MEL melanoma = tested on: M19-MEL melanoma
RXF-631 renal = tested on: RXF-631 renal
SNB-78 CNS = tested on: SNB-78 CNS
XF 498 CNS = tested on: XF 498 CNS
DLD-1 colon = tested on: DLD-1 colon
DMS 114 small cell lung = tested on: DMS 114 small cell lung
HOP-18 NSCLC = tested on: HOP-18 NSCLC

| SMILES | TGI (KM20L2 colon) [µM] | TGI (LXFL 529 NSCLC) [µM] | TGI (M19-MEL melanoma) [µM] | TGI (RXF-631 renal) [µM] | TGI (SNB-78 CNS) [µM] | TGI (XF 498 CNS) [µM] | TGI (DLD-1 colon) [µM] | TGI (DMS 114 small cell lung) [µM] | TGI (HOP-18 NSCLC) [µM] |
| --- | --- | --- | --- | --- | --- | --- | --- | --- | --- |
| CC(C)=NNC(=S)NC12CC3CC(CC(C3)C1)C2 | > 100 | > 100 | > 100 | > 100 | > 100 | > 100 | – | – | – |
| C=C1CC2(CCS(=O)(=O)c3ccccc32)OC1=O (configuration not stated) | 28.6 | 15.9 | 37.2 | 43.4 | 33.6 | 26.1 | 25.9 | 14.2 | 14.7 |
| COC12OCCN(C)C1=CC(=O)C1(C)N=NCC12 (configuration not stated) | – | > 100 | > 100 | – | > 100 | – | > 100 | > 100 | > 100 |
| CCOC(=O)CN(c1ccccc1)c1nc(=[N+](C)C)ss1 | > 100 | – | 34 | – | > 100 | – | > 100 | 27.7 | > 100 |
| Cc1ccc(C(=O)NCCN(C)C)c2nc3ccccc3cc12 | 6 | > 100 | > 100 | 12 | > 100 | 3.95 | > 100 | > 100 | 9.89 |
| COC(=O)C1[C@H](c2ccc3c(c2)OCO3)OC(=O)[C@]1(C(=O)OC)C(=O)c1ccc(OC)c(OC)c1 (some centres not stated) | > 100 | > 100 | > 100 | – | > 100 | > 100 | 40.1 | – | > 100 |
| Cc1ccc(S(=O)(=O)OCCOCCOCCOCCOCCOS(=O)(=O)c2ccc(C)cc2)cc1 | > 100 | > 100 | > 100 | 82.2 | > 100 | – | > 100 | – | > 100 |
| N#CCc1nnc(N)o1 | > 100 | > 100 | > 100 | > 100 | > 100 | > 100 | > 100 | – | – |
